From US20240308995A1, “O-GLYCOPROTEIN-2-ACETAMIDO-2-DEOXY-3-D-GLUCOPYRANOSIDASE INHIBITORS” (BIOGEN MA INC., priority 2018, published 2024)
Structures can show the parent of a compound that is named as a salt.

Experiments:
[1] = target: OGA (S400 O-GLCNAC), HEK-293T cells transfected with Tau-V5 (Homo sapiens (Human), UniProt O60502); assay: Cellular OGA-Tau MSD Assay; assay type: cell-based
Protocol: HEK-293T cells were transfected with […] and Tau-V5 plasmids using Lipofectamine and grown overnight. Next day, the cells were collected and re-plated at 1×10^5 cells per well in 96 well plates. Cells were incubated for 4 hr at 37° C., before compounds were added at 1 uM, with 3-fold dilutions in a 10-point titration. Cell plates were incubated with compounds overnight at 37° C. The next day media was removed from wells by gentle aspiration and 120 ul of 1× Cell Lysis buffer mixed with protease and phosphatase cocktail added to each well. A freeze thaw was performed at -80° C., then mixed before transferring 50 ul to MSD plates coated with V5-tag antibody to capture Tau. MSD Plates were incubated overnight at 4° C., on a plate shaker. The following day, plates were washed and incubated with Tau-[…]-GlcNAc antibody for 2 hr and then developed with rabbit Sulfo-tag antibody. Final read out was carried out on an MSD 600 reader. The data was analyzed using Graph Pad or Genedata, the data was normalized and % activity versus log of compound concentration was plotted. The IC50 values were obtained from a 4 parameter fit.

[2] = target: Recombinant full length human OGA enzyme (Homo sapiens (Human), UniProt O60502); assay: OGA Enzyme Inhibition Biochemical Assay
Protocol: Recombinant full length human OGA enzyme was purchased from Origene. 4-MUGlcNAc substrate was purchased from Sigma. All other reagents were purchased from Sigma or Fisher. Assay buffer consists of the McIlvaine buffer system, pH 6.4 (0.2M Na2HPO4 mixed with 0.1M citric acid) and 0.01% BSA. […] Reactions were incubated for 90 minutes at room temperature and quenched with 40 μl of 3M glycine, pH 10 and read on a Perkin Elmer Envision plate reader (Ex: 355 nm/Em: 460 nm). Compounds were tested with a 10-point dose-response starting from 20 μM with a 4-fold dilution. Data was fit using GraphPad Prism using a 4-parameter fit with variable slope.

[3] = HEK-293T cells, Tau-S400-GlcNAc MSD readout
[4] = 1 nM OGA, 100 μM 4-MUGlcNAc, pH 6.4
[5] = repeated assay, value marked with asterisk (*)

Sequence of OGA (S400 O-GLCNAC), HEK-293T cells transfected with Tau-V5 (O60502 whole entry): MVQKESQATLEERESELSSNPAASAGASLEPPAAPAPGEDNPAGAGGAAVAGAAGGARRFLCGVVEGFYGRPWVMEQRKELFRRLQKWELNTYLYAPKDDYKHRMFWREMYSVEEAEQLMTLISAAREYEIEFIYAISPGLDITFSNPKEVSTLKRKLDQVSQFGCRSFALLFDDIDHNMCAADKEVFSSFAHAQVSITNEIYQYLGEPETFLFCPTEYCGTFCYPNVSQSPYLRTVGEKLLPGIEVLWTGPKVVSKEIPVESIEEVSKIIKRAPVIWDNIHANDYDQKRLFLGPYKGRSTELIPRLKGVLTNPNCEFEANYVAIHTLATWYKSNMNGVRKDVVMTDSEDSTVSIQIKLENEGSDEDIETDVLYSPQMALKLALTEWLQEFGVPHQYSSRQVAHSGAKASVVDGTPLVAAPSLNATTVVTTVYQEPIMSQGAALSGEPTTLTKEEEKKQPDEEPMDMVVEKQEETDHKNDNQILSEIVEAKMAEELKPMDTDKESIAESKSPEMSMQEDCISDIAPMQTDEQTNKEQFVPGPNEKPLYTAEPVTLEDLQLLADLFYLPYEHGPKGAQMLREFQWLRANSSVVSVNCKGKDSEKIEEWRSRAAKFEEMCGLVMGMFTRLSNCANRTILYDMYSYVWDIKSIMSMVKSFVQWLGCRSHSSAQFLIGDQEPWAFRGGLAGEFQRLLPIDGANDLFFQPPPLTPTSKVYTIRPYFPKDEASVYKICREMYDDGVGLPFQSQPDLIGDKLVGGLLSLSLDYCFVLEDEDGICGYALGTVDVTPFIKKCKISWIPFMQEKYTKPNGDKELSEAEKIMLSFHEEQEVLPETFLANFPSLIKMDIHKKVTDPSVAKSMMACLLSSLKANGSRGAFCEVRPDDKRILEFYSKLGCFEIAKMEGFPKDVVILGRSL
Sequence of Recombinant full length human OGA enzyme (O60502 whole entry): as above

| IC50 [1, 3] | IC50 [2, 4] | IC50 [2, 5] | IC50 [1, 5] | SMILES |
| --- | --- | --- | --- | --- |
| 2 nM | < 1 nM |  |  | [2H][C@@]1(Oc2cc(OC)ncn2)C[C@H](C)N(Cc2sc(NC(C)=O)nc2F)C1 (single isomer, unassigned) [Example 1-165] |
|  | < 1 nM |  |  | COCCOc1cnc(O[C@@H]2C[C@H](C)N(Cc3sc(NC(C)=O)nc3F)C2)cn1 [Example 1-144, N-(4-fluoro-5-(((2S,4R)-4-((5-(2-methoxyethoxy)pyrazin-2-yl)oxy)-2-methylpyrrolidin-1-yl)methyl)thiazol-2-yl)acetamide] |
|  | < 1 nM |  |  | COCCOc1ccnc(O[C@@H]2C[C@H](C)N(Cc3sc(NC(C)=O)nc3F)C2)c1 [Example 1-147, N-(4-fluoro-5-(((2S,4R)-4-((4-(2-methoxyethoxy)pyridin-2-yl)oxy)-2-methylpyrrolidin-1-yl)methyl)thiazol-2-yl)acetamide] |
|  | < 1 nM |  |  | CC(=O)Nc1nc(F)c(CN2C[C@H](Oc3ccc(N4CCOCC4)cn3)C[C@@H]2C)s1 [Example 1-146, N-(4-fluoro-5-(((2S,4R)-2-methyl-4-((5-morpholinopyridin-2-yl)oxy)pyrrolidin-1-yl)methyl)thiazol-2-yl)acetamide] |
|  | < 1 nM |  |  | CC(=O)Nc1nc(F)c(CN2C[C@H](Oc3cc(C)c(F)cn3)C[C@@H]2C)s1 [Example 1-117, N-(4-fluoro-5-(((2S,4R)-4-((5-fluoro-4-methylpyridin-2-yl)oxy)-2-methylpyrrolidin-1-yl)methyl)thiazol-2-yl)acetamide] |
| 2 nM | < 1 nM |  |  | [2H]C([2H])([2H])Oc1cc(O[C@@H]2C[C@H](C)N(Cc3sc(NC(C)=O)nc3F)C2)ncn1 (single isomer, unassigned) [Example 1-155] |
| 3 nM | < 1 nM |  |  | [2H]C([2H])([2H])C(=O)Nc1nc(F)c(CN2C[C@H](Oc3cc(OC)ncn3)C[C@@H]2C)s1 (single isomer, unassigned) [Example 1-157, trifluoroacetate salt] |
| 1 nM | < 1 nM |  |  | COc1ccc(O[C@@H]2C[C@H](C)N(Cc3sc(NC(C)=O)nc3F)C2)nn1 [Example 1-84, N-(4-fluoro-5-(((2S,4R)-4-((6-methoxypyridazin-3-yl)oxy)-2-methylpyrrolidin-1-yl)methyl)thiazol-2-yl)acetamide] |
| 1 nM | < 1 nM |  |  | [2H]C(c1sc(NC(C)=O)nc1F)N1C[C@H](Oc2cc(OC)ncn2)C[C@@H]1C (single isomer, unassigned) [Example 1-159] |
| 7 nM | 1 nM |  |  | CC(=O)Nc1nc(F)c(CN2C[C@H](Oc3cc(OC4CN(C)C4)ncn3)C[C@@H]2C)s1 [Example 1-141, N-(4-fluoro-5-(((2S,4R)-2-methyl-4-((6-((1-methylazetidin-3-yl)oxy)pyrimidin-4-yl)oxy)pyrrolidin-1-yl)methyl)thiazol-2-yl)acetamide] |
|  | < 1 nM |  |  | COCCN(C)c1ccnc(O[C@@H]2C[C@H](C)N(Cc3sc(NC(C)=O)nc3F)C2)c1 [Example 1-145, N-(4-fluoro-5-(((2S,4R)-4-((4-((2-methoxyethyl) (methyl)amino)pyridin-2-yl)oxy)-2-methylpyrrolidin-1-yl)methyl)thiazol-2-yl)acetamide] |
| 4 nM | < 1 nM |  |  | [2H]C([2H])(c1sc(NC(C)=O)nc1F)N1C[C@H](Oc2cc(OC)ncn2)C[C@@H]1C (single isomer, unassigned) [Example 1-161] |

Further lines, the compound ahead of its results:

| SMILES | IC50 [1, 3] | IC50 [2, 4] | IC50 [2, 5] | IC50 [1, 5] |
| --- | --- | --- | --- | --- |
| COc1cc(O[C@@H]2C[C@@H](C)N(Cc3sc(NC(C)=O)nc3F)C2)ncn1 [Example 1-29, N-(4-fluoro-5-(((2R,4R)-4-((6-methoxypyrimidin-4-yl)oxy)-2-methylpyrrolidin-1-yl)methyl)thiazol-2-yl)acetamide] | 97 nM | 58 nM |  |  |
| CC(=O)Nc1nc(F)c(CN2C[C@H](Oc3cc(N4CCC4)ncn3)C[C@@H]2C)s1 [Example 1-24, N-(5-(((2S,4R)-4-((6-(azetidin-1-yl)pyrimidin-4-yl)oxy)-2-methylpyrrolidin-1-yl)methyl)-4-fluorothiazol-2-yl)acetamide] | 1 nM | < 1 nM |  |  |
| CC(=O)Nc1nc(F)c(CN2C[C@H](Oc3cc(N4CC(F)C4)ncn3)C[C@@H]2C)s1 [Example 1-25, N-(4-fluoro-5-(((2S,4R)-4-((6-(3-fluoroazetidin-1-yl)pyrimidin-4-yl)oxy)-2-methylpyrrolidin-1-yl)methyl)thiazol-2-yl)acetamide] | < 1 nM | < 1 nM |  |  |
| CC(=O)Nc1ncc(CN2C[C@H](Oc3cc(C)nc(C)c3)CC[C@@H]2C)s1 [Example 1-67, N-(5-(((2S,5R)-5-((2,6-dimethylpyridin-4-yl)oxy)-2-methylpiperidin-1-yl)methyl)thiazol-2-yl)acetamide] | 3 nM | < 1 nM |  |  |
| CC(=O)Nc1nc(F)c(CN2C[C@H](Oc3cc(N4CC(F)(F)C4)ncn3)C[C@@H]2C)s1 [Example 1-26, N-(5-(((2S,4R)-4-((6-(3,3-difluoroazetidin-1-yl)pyrimidin-4-yl)oxy)-2-methylpyrrolidin-1-yl)methyl)-4-fluorothiazol-2-yl)acetamide] | 1 nM | < 1 nM |  |  |
| COc1cc(O[C@H]2CCN(Cc3cnc(NC(C)=O)s3)C2)ncn1 [Example 1-36, (S)—N-(5-((3-((6-methoxypyrimidin-4-yl)oxy)pyrrolidin-1-yl)methyl)thiazol-2-yl)acetamide] |  | 1700 nM |  |  |
| CC(=O)Nc1ncc(CN2C[C@H](Oc3cc(OC4CCC4)ncn3)C[C@@H]2C)s1 [Example 1-121, N-(5-(((2S,4R)-4-((6-cyclobutoxypyrimidin-4-yl)oxy)-2-methylpyrrolidin-1-yl)methyl)thiazol-2-yl)acetamide] | 3 nM | < 1 nM |  |  |
| CC(=O)Nc1ncc(CN2C[C@H](Oc3ccc(F)cn3)CC[C@@H]2C)s1 [Example 1-4, N-(5-(((2S,5R)-5-((5-fluoropyridin-2-yl)oxy)-2-methylpiperidin-1-yl)methyl)thiazol-2-yl)acetamide] | 6 nM | 1.2 nM |  |  |
| CC(=O)Nc1ncc(CN2C[C@@H](Oc3ccc(F)cn3)CC[C@@H]2C)s1 [Example 1-5, N-(5-(((2S,5S)-5-((5-fluoropyridin-2-yl)oxy)-2-methylpiperidin-1-yl)methyl)thiazol-2-yl)acetamide] | 4 nM | 1.6 nM |  |  |
| CC(=O)Nc1ncc(CN2C[C@H](Oc3cc(C(F)(F)F)ncn3)C[C@@H]2C)s1 [Example 1-79, N-(5-(((2S,4R)-2-methyl-4-((6-(trifluoromethyl)pyrimidin-4-yl)oxy)pyrrolidin-1-yl)methyl)thiazol-2-yl)acetamide] | 41 nM | 11 nM |  |  |
| COc1cc(O[C@@H]2C[C@H](C)N(Cc3sc(NC(C)=O)nc3F)C2)ncn1 [Example 1-22, N-(4-Fluoro-5-(((2S,4R)-4-((6-methoxypyrimidin-4-yl)oxy)-2-methylpyrrolidin-1-yl)methyl)thiazol-2-yl)acetamide] | 2 nM | < 1 nM |  |  |
| CC(=O)Nc1ncc(CN2CC[C@H](Oc3ccc(F)cn3)C2)s1 [Example 1-7, (S)—N-(5-((3-((5-fluoropyridin-2-yl)oxy)pyrrolidin-1-yl)methyl)thiazol-2-yl)acetamide] |  | > 1000 nM | 2000 nM |  |
| COc1cncnc1O[C@@H]1C[C@H](C)N(Cc2cnc(NC(C)=O)s2)C1 [Example 1-74] | 13 nM | 6.4 nM |  |  |
| COc1cc(O[C@H]2C[C@@H](C)N(Cc3sc(NC(C)=O)nc3F)C2)ncn1 [Example 1-31, N-(4-fluoro-5-(((2R,4S)-4-((6-methoxypyrimidin-4-yl)oxy)-2-methylpyrrolidin-1-yl)methyl)thiazol-2-yl)acetamide] | > 1000 nM | 2900 nM |  |  |
| COc1ncnc(O[C@@H]2C[C@H](C)N(Cc3cnc(NC(C)=O)s3)C2)c1F [Example 1-19, N-(5-(((2S,4R)-4-((5-fluoro-6-methoxypyrimidin-4-yl)oxy)-2-methylpyrrolidin-1-yl)methyl)thiazol-2-yl)acetamide] |  | 1.2 nM |  | 6 nM |
| CC(=O)Nc1ncc(CN2C[C@H](Oc3cc(=O)n(C)cn3)C[C@@H]2C)s1 [Example 1-70, N-(5-(((2S,4R)-2-methyl-4-((1-methyl-6-oxo-1,6-dihydropyrimidin-4-yl)oxy)pyrrolidin-1-yl)methyl)thiazol-2-yl)acetamide] | 5 nM |  |  |  |
| COc1cc(O[C@H]2C[C@H](C)N(Cc3sc(NC(C)=O)nc3F)C2)ncn1 [Example 1-30, N-(4-fluoro-5-(((2S,4S)-4-((6-methoxypyrimidin-4-yl)oxy)-2-methylpyrrolidin-1-yl)methyl)thiazol-2-yl)acetamide] | 21 nM | 15 nM |  |  |
| COc1cc(O[C@H]2CCN(Cc3sc(NC(C)=O)nc3F)C2)ncn1 [Example 1-27, (S)—N-(4-fluoro-5-((3-((6-methoxypyrimidin-4-yl)oxy)pyrrolidin-1-yl)methyl)thiazol-2-yl)acetamide] |  | 850 nM |  |  |
